Measured values reported in patent publication US10946029B2, “Dry powder formulation comprising a corticosteroid and a beta-adrenergic for administration by inhalation” (CHIESI FARMACEUTICI S.p.A., priority 2012, dated 2021).

Assays:
[1] = Specific Surface Area by BET nitrogen adsorption (Coulter SA3100); type: physicochemical; conditions: micronised beclometasone dipropionate; mean of three determinations
Description: Advantageously, the micronized particles of BDP have also a specific surface area comprised between 5.5 and 7.0 m^2/g, preferably between 5.9 and 6.8 m^2/g. The Specific Surface Area is determined by Brunauer-Emmett-Teller (BET) nitrogen adsorption method according to a procedure known in the art.
(§1) The particle size was determined by laser diffraction using a Malvern apparatus. The parameter taken into consideration was the VD in micron of 10%, 50% and 90% of the particles expressed as d(v,0.1), d(v, 0.5) and d(v, 0.9), respectively, which correspond to the mass diameter assuming a size independent density for the particles. The span [d(v,0.9)−d(v,0.1)]/d(v,0.5) is also reported. The Specific Surface Area (SSA) was determined by BET nitrogen adsorption using a Coulter SA3100 apparatus as a mean of three determinations.

[2] = Particle size distribution by laser diffraction (Malvern apparatus); type: physicochemical; conditions: micronised beclometasone dipropionate; for Span: [d(v,0.9)−d(v,0.1)]/d(v,0.5); for d (v, 0.1): volume diameter of 10% of the particles; for d (v, 0.5): volume diameter of 50% of the particles; for d (v, 0.9): volume diameter of 90% of the particles
Description: The size of the particles active is determined by measuring the characteristic equivalent sphere diameter, known as volume diameter, by laser diffraction. In the reported examples, the volume diameter has been determined using a Malvern apparatus, However, other equivalent apparatus may be used by the skilled person in the art.
as §1

Row | SMILES | SSA [1] | Span [2] | d (v, 0.1) [2] | d (v, 0.5) [2] | d (v, 0.9) [2]
1 | CCC(=O)OCC(=O)[C@@]1(OC(=O)CC)[C@@H](C)C[C@H]2[C@@H]3CCC4=CC(=O)C=C[C@]4(C)[C@@]3(Cl)[C@@H](O)C[C@@]21C [Batch 1, beclometasone dipropionate] | 6.61 m^2/g | 1.41 | 0.86 μm | 1.63 μm | 3.15 μm
2 | CCC(=O)OCC(=O)[C@@]1(OC(=O)CC)[C@@H](C)C[C@H]2[C@@H]3CCC4=CC(=O)C=C[C@]4(C)[C@@]3(Cl)[C@@H](O)C[C@@]21C [Batch 2, beclometasone dipropionate] | 5.90 m^2/g | 1.31 | 0.96 μm | 1.81 μm | 3.33 μm
3 | CCC(=O)OCC(=O)[C@@]1(OC(=O)CC)[C@@H](C)C[C@H]2[C@@H]3CCC4=CC(=O)C=C[C@]4(C)[C@@]3(Cl)[C@@H](O)C[C@@]21C [Batch 4, beclometasone dipropionate] | 6.28 m^2/g | 1.54 | 0.91 μm | 1.84 μm | 3.76 μm
4 | CCC(=O)OCC(=O)[C@@]1(OC(=O)CC)[C@@H](C)C[C@H]2[C@@H]3CCC4=CC(=O)C=C[C@]4(C)[C@@]3(Cl)[C@@H](O)C[C@@]21C [Batch 3, beclometasone dipropionate] | 6.12 m^2/g | 1.19 | 0.95 μm | 1.71 μm | 2.97 μm
